Experimental data as given in patent US5910502A, “Use of levobupivacaine in paediatric surgery” (priority 1997, dated 1999).
Structures can show the parent of a compound that is named as a salt.

Experiments:
[1] = test system: tk locus (5-trifluorothymidine resistance) in mouse lymphoma cells; test: Mutation at the tk locus (5-trifluorothymidine resistance) in mouse lymphoma cells, fluctuation protocol, with and without S-9
Protocol: (§1) More specifically, levobupivacaine HCl was assayed for its ability to induce mutation at the tk locus (5-trifluorothymidine resistance) in mouse lymphoma cells using a fluctuation protocol. The study consisted of a cytotoxicity range-finder followed by two independent experiments, each conducted in the absence and presence of metabolic activation by an Aroclor 1254-induced rat liver post-mitochondrial fraction (S-9). For reference, bupivacaine HCl was tested concurrently in the cytotoxicity range-finder.
For reference, three doses of bupivacaine HCl were tested in the absence of S-9 (250, 500 and 750 μg/ml), and two doses in the presence of S-9 (250, 500 μg/ml). The lowest five doses of levobupivacaine HCl and all reference doses of bupivacaine HCl were selected to determined viability and 5-trifluorothymidine resistance, 2 days after treatment.
In the second experiment, the dose range was modified slightly for both levobupivacaine HCl and bupivacaine HCl.
Negative (solvent) and positive control treatments were included in each mutation experiment in the absence and presence of S-9.

heart = settings: in vitro; Vanhoutte et al 1991, Denson et al 1992; cited from earlier work
[2] = test system: children having outpatient herniorrhaphy; test: Double-blind randomized placebo-controlled clinical study: IlIH nerve block in children having outpatient herniorrhaphy; format: in vivo, human (children ages 6 mo to 12 y)
Protocol: In a clinical study, the suitability of levobupivacaine in paediatric surgery was evaluated. This was a double-blind randomized, placebo-controlled study, to determine the safety and effectiveness of levobupivacaine for field block in children having outpatient herniorrhaphy. More specifically, otherwise healthy children ages 6 mo to 12 y presenting for outpatient herniorrhaphy were randomized to receive either ilioinguinal/iliohytpogastric (IlIH) nerve block(s) with 0.25 ml/kg 0.5% levobupivacaine per side operated, or no block, at the completion of surgery.

[3] = test system: patients requiring hernia repair; test: Further study in patients requiring hernia repair: rescue analgesia; format: in vivo, human
Protocol: In a further study, using levobupivacaine in patients requiring hernia repair, 45% of patients in the 0.5% levobupivacaine group compared with 73.3% of patients in the no block required at least one dose of rescue analgesia (p=0.167). The majority of the children who required rescue (91.4%) required two or fewer doses of rescue analgesia. […] The median patient in the 0.5% levobupivacaine group first requested rescue medication after at least 118 minutes, compared with 31 minutes in the no block group (p=0.041).

mouse lymphoma cells = test: Cytotoxicity range-finder (relative survival), with and without S-9; format: cell-based
Protocol: as §1
(§2) A wide range of concentrations were selected for the cytotoxicity range-finder experiments, separated by two-fold intervals and ranging from 31.25 to 1000 μg/ml for levobupivacaine HCl and from 62.5 to 2000 μg/ml for bupivacaine HCl (limited by solubility in both cases).

[4] = as above; format: cell-based, mouse; settings: mouse
Protocol: as §1, §2

[5] = test system: heart; central nervous system (CNS); settings: cited from earlier work
[6] = 0.25 ml/kg 0.5% per side operated, vs no block

O=[N+]([O-])c1cc[n+]([O-])c2ccccc12 [4-nitroquinoline 1-oxide]
mutation, positive control ([1]; without S-9): clear increases in mutation

CCCCN1CCCC[C@H]1C(=O)Nc1c(C)cccc1C [levobupivacaine, (S)-1-butyl-N-(2,6-dimethylphenyl)-2-piperidinecarboxamide]
cardiotoxicity relative to dextrobupivacaine and racemic bupivacaine (heart): less cardiotoxic than dextrobupivacaine and racemic bupivacaine
safety and effectiveness for IlIH block, conclusion ([2]; 0.25 ml/kg 0.5% levobupivacaine per side operated): safe and effective
adverse events specifically attributable to levobupivacaine ([2]; 0.25 ml/kg 0.5% per side operated): absence of any adverse events
interval to rescue analgesia [2, 6]: longer interval to rescue analgesia
rescue analgesic doses [2, 6]: fewer rescue analgesic doses
CHEOPS ([2]; at 15, 20, 30 and 60 min, 0.25 ml/kg 0.5% per side operated, vs no block): lower CHEOPS
time to first request for rescue medication (in words) ([3]; 0.5% levobupivacaine group vs no block group): significantly longer
patients requiring at least one dose of rescue analgesia ([3]; 0.5% levobupivacaine group, no block 73.3%, p=0.167): 45%
median time to first request for rescue medication ([3]; 0.5% levobupivacaine group, no block 31 minutes, p=0.041): at least 118 minutes
genotoxicity, summary [1]: completely negative

CCCCN1CCCCC1C(=O)Nc1c(C)cccc1C (stereo not drawn) [bupivacaine HCl]
cytotoxicity (in words) (mouse lymphoma cells; bupivacaine HCl (reference), top two doses, 1000 and 2000 μg/ml): completely toxic
viability ([4]; absence of S-9, 500 μg/ml): 100%
viability ([4]; presence of S-9, 500 μg/ml): 12.4%

CCCCN1CCCC[C@H]1C(=O)Nc1c(C)cccc1C [levobupivacaine HCl]
cell survival (in words) (mouse lymphoma cells; 31.25 to 1000 μg/ml, absence and presence of S-9): Cells survived all doses
viability ([4]; absence of S-9, 1000 μg/ml): 150%
viability ([4]; presence of S-9, 1000 μg/ml): 9.1%
mutagenicity, overall conclusion [1]: not mutagenic

c1ccc2c(c1)cc1ccc3cccc4ccc2c1c34 [benzo[a]pyrene]
mutation, positive control ([1]; with S-9): clear increases in mutation

CCCCN1CCCCC1C(=O)Nc1c(C)cccc1C (racemic) [bupivacaine]
CNS side-effects (in words) ([5]; at higher doses): undesirable central nervous system (CNS) side-effects
cardiotoxicity (in words) ([5]; background): cardiotoxic, having depressant electrophysiological and mechanical effects on the heart
death in patients (in words) ([5]; including women in childbirth and Bier's block): produced death in a number of patients
dosage limitation by cytotoxicity, summary [1]: limited by cytotoxicity
genotoxicity, summary [1]: positive for genotoxicity
